We go through seven compounds from PMC6888386, “Identification of Novel 1,3,5-Triphenylbenzene Derivative Compounds as Inhibitors of Hen Lysozyme Amyloid Fibril Formation” (International Journal of Molecular Sciences, 2019).

The target in series [1] is T1, hen egg white lysozyme (HEWL) (Gallus gallus, UniProt P00698).
T1 construct: Hen egg white lysozyme (HEWL), thioflavin T (ThT), and Congo red (CR) were purchased from Sigma-Aldrich; purchased Sigma-Aldrich (St. Louis, MO, USA); host or cells: hen egg white (per the product name)
T1 sequence (P00698 19-147): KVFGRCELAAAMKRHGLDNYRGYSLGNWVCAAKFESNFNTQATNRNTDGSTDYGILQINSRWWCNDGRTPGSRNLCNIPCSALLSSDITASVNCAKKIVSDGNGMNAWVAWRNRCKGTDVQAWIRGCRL
Nature of the series: ThT fluorescence assay of HEWL amyloid fibril formation. It is filed as biochemical. As to conditions: 48 h; for IC50: HEWL 2 mg/mL (140 µM), 50 mM glycine buffer pH 2.5, 57 °C, stirring 250 rpm, compound 0.03-2.6 µM, Figure 2, read-out: IC50 of prevention of HEWL amyloid fibril formation. As to the method: The inhibition potential of the six compounds was determined using the ThT fluorescence assay to measure the amount of amyloid aggregates after the addition of various concentrations of each compound ranging from 0.03 to 2.6 µM. Aggregation of HEWL was induced by incubating the protein for 48 h at a concentration of 2 mg/mL (140 µM) in 50 mM glycine buffer, pH 2.5, and 57 °C, while stirred gently by magnetic bars (rpm 250), in the absence or presence of 0.03–2.6 µM compounds 1–6. […] The IC50 values of the compounds, corresponding to the concentration at which the inhibitory effect is half of the maximum effect, were determined (Figure 2).
(§1) HEWL concentration was determined by optical absorption at 280 nm (ε280 = 2.65 L·g^−1·cm^−1). HEWL was dissolved to a concentration of 2 mg/mL (140 µM) in 50 mM glycine buffer, pH 2.5, centrifuged for 10 min at 13,000 rpm, then incubated at 57 °C for the specified time lengths in the absence or presence of the indicated concentrations of compounds 1–6, under gentle stirring at 250 rpm by a Teflon magnetic bar.
A mother solution of 2.5 mM ThT was prepared in 10 mM sodium phosphate buffer, 150 mM NaCl, pH 7.0. It was then passed through a 0.45 μm filter paper and stored at 4 °C until it was placed at room temperature immediately before use. At regular time intervals, a 10 µL aliquot of protein solution was mixed with 990 μL of ThT solution in a 10 × 10 mm quartz cuvette and the fluorescence emission spectra were recorded at room temperature using a Cary Eclipse VARIAN fluorescence spectrophotometer (Varian, Mulgrave, Australia) and an excitation wavelength of 440 nm.

The target in series [2] is T1, hen egg white lysozyme (HEWL). Nature of the series: Congo red (CR) assay of HEWL aggregation. The class given is biochemical. As to conditions: 0.32 µM compound; for CR absorbance relative to that measured in the absence of the compounds: HEWL pre-incubated 48 h under aggregating conditions. The protocol:
Aliquots of the same samples used for ThT experiments were also used to carry out the CR assays. […] The higher CR absorbance obtained in the presence of HEWL is likely to originate from the presence of protein aggregates that scatter light, whereas the red shift of the peak from 490 to 520–540 nm indicates the presence of β-sheet containing aggregates.
as §1
Since compounds 1–6 have optical absorption spectra partially overlapped to that of CR, all protein samples were centrifuged at 10,000 rpm and the pellets resuspended in 50 mM glycine buffer, pH 2.5, at room temperature. A mother solution of 20 mM CR was prepared in 5 mM sodium phosphate buffer, 150 mM NaCl, pH 7.4, it was then filtered using a center-glass N4 filter and stored at 4 °C, until it was placed at room temperature immediately before use. At different time points during protein aggregation, a 60 μL aliquot of resuspended protein solution was mixed with 440 μL of CR solution. Optical absorption spectra were acquired after 2–3 min equilibration at 25 °C, using a Cecil 7200 UV–visible spectrophotometer (Aquarius, Cambridge, England) and a 1 cm path-length cell.

Series [3] shares this target. In words: Atomic force microscopy of HEWL aggregates. As to conditions: 0.32 µM compound, HEWL 140 µM, pH 2.5, 57 °C, 48 h. It is filed as biochemical. The protocol: In order to define further the nature of the aggregated species, an analysis of their morphologies was carried out using AFM. HEWL was incubated under the same aggregation conditions used for the ThT, CR, and FTIR experiments, i.e., for 48 h at a concentration of 2 mg/mL (140 µM) in 50 mM glycine buffer, pH 2.5, and 57 °C, under stirring (250 rpm), in the absence or presence of 0.32 µM of compounds 1–6 and the resulting samples were examined by AFM (Figure 6). […] Rather, oligomeric and/or amorphous species were predominant.
HEWL samples pre-incubated for 48 h under aggregating conditions with or without 0.32 µM compounds 1–6 were diluted 100 times in filtered deionized water. A 5 µL aliquot of each of the resulting samples was placed on freshly cleaved mica at room temperature. After a few minutes, the mica was slowly washed with 100 μL of deionized water and dried with N2. Each image was acquired in a non-contact mode at a scan speed of 30 μm/s, loop filter of 3 Hz and force of 200 nN with a Dual Scope Probe Scanner (Veeco, model Auto probe, CP-Research, CA, USA) with an area of 5 × 5 μm^2. Conical shape silicon tips (MikroMasch NSC16) with a resonance frequency of 150 kHz and a nominal constant of 40 N/m were used. Fifteen images were collected for each compound.

In series [4] the test system is SH-SY5Y human neuroblastoma cells. Nature of the series: MTT reduction test with HEWL aggregates. It is filed as cell-based. As to conditions: for Rescue of cell viability (MTT reduction): 2 µM HEWL aggregates formed in the presence of 0.32 µM compound. The protocol: (§2) We then assessed the cytotoxicity of HEWL aggregates, formed in the absence or presence of compounds 1–6, according to the aggregation protocol described for the ThT experiments. HEWL aggregates were collected by centrifugation, dried under N2, dissolved in cell culture medium, and added to SH-SY5Y human neuroblastoma cells at a concentration of 2 µM (monomer equivalents). The ability of the resulting aggregates to cause cellular dysfunction was assessed by performing the MTT reduction inhibition assay, a widely used indicator of mitochondrial dysfunction. […] Very similar results were obtained by measuring the activity of caspase-3, a well-recognized apoptotic marker. A significant activation of caspase-3 (320 ± 12%, as compared to untreated cells) was observed following treatment for 24 h of SH-SY5Y cells with HEWL aggregates at 2 µM (Figure 7B).
(§3) Authenticated human neuroblastoma SH-SY5Y cells were purchased from American Type Culture Collection (ATCC) (Manassas, VA, USA) and they tested negative for mycoplasma contaminations. SH-SY5Y cells were cultured in Dulbecco’s modified Eagle’s medium (DMEM), F-12 Ham with 25 mM HEPES and NaHCO3 (1:1) supplemented with 10% fetal bovine serum (FBS), 1.0 mM glutamine and 1.0% penicillin and streptomycin solution. Cells were maintained in a 5.0% CO2 humidified atmosphere at 37 °C and grown until 80% confluence for a maximum of 20 passages.
HEWL samples pre-incubated for 48 h under aggregating conditions in the absence or presence of 0.32 µM compounds 1–6 were centrifuged and the pellets were dried under N2 to remove any compounds and DMSO, dissolved in cell culture medium at a final HEWL concentration of 2 μM (monomer equivalents), and added to SH-SY5Y cells seeded in 96-well plates for 24 h at 37 °C. The cell medium was then removed and the MTT solution (0.5 mg/mL in RPMI) was added to the cells for 4 h. The medium was then aspirated, and the formazan product was solubilized with cell lysis buffer (20% SDS, 50% N, N-dimethylformamide, pH 4.7) for 1 h, as previously described.
(In general: Formazan colour is commonly taken as a measure of viable cells.)

The test system of series [5] is caspase-3 activity in SH-SY5Y cells. Nature of the series: Caspase-3 activity after exposure to HEWL aggregates. As to conditions: 24 h; for Prevention of the apoptotic response (caspase-3 activation) induced by aggregates: 2 µM HEWL aggregates formed in the presence of 0.32 µM compound. The class given is cell-based, human. As to the method: as §2, §3
HEWL aggregates were formed in the absence or in the presence of 0.32 µM of compounds 1–6 as described in the previous section and then added to the cell culture medium of SH-SY5Y cells seeded on glass coverslips for 24 h at 2 μM (monomer equivalents). Caspase-3 activity was then analyzed by using FAM FLICA^TM caspases 3 & 7 solution (caspase 3 & 7 FLICA kit FAM-DEVDFMK, Immunochemistry Technologies, LLC, Bloomington, MN, USA). Cell fluorescence was analyzed by the TCS SP8 scanning confocal microscopy system (Leica Microsystems, Mannheim, Germany) equipped with an argon laser source, as previously reported. A series of 1.0 μm thick optical sections (1024 × 1024 pixels) was taken through the cell depth for each sample using a Leica Plan Apo 63 × oil immersion objective for fluorescence measurement at 488 nm. The confocal microscope was set at optimal acquisition conditions, e.g., pinhole diameters, detector gain, and laser powers. Settings were maintained constant for each analysis.

Setting [6] is: 24 h exposure, 2 µM (monomer equivalents), no compound.
Where [7] appears, read: 24 h, 2 µM (monomer equivalents) HEWL aggregates formed in the presence of 0.32 µM compound.

`Oc1ccc(-c2cc(-c3ccc(O)cc3)cc(-c3ccc(O)cc3)c2)cc1` [Compound 6, 1,3,5-tris(4-hydroxyphenyl)benzene] displayed a melting point of 237 to 239 °C. Further, the “Relative efficacy as inhibitor in terms of IC50 value” in series [1] (HEWL 140 µM, pH 2.5, 57 °C) is recorded as “minimum effect”. Further, in series [1], the 50% inhibitory concentration (IC50) was 980 nM. In series [2] (48 h, spectrum of CR alone subtracted), the “Absorbance peak at 540 nm in CR difference spectra” value is “only a modest decrease”. In addition, in series [2], the “CR absorbance relative to that measured in the absence of the compounds” value (shortened to “CR absorbance relative to that measured”) is recorded as “markedly higher”. Moreover, in series [3], the “Morphology of HEWL aggregates by AFM” value is on record as “a mixture of unbranched filamentous assemblies”. For the same compound, the “Rescue of cell viability (MTT reduction)” value in series [4] (24 h) is recorded as “partial rescue”. In addition, in series [5], the “Prevention of the apoptotic response (caspase-3 activation) induced by aggregates” value (shortened to “Prevention of the apoptotic response”) is reported as “only a slight protective effect”.
As for `Cc1ccc(-c2cc(-c3ccc(C)cc3)cc(-c3ccc(C)cc3)c2)cc1` [Compound 4, 1,3,5-tris(4-methylphenyl)benzene], the melting point fell in the range of 178 to 179 °C. Moreover, the concentration for half-maximal inhibition (IC50) in series [1] came out at 400 nM. In series [2], the “CR absorbance relative to that measured” value was “lower”. In series [4] (24 h), the “Rescue of cell viability (MTT reduction)” value is on record as “partial rescue”. In addition, the “Prevention of the apoptotic response” value in series [5] is “significantly prevented”.
“HEWL aggregates: hen egg white lysozyme aggregates formed 48 h at pH 2.5, 57 °C in the absence of compounds”: the “MTT reduction relative to untreated cells” value in series [4] (setting [6]) worked out at 73.9 ± 2.1%. Further, in series [5] (HEWL aggregates at 2 µM, no compound), the “Activation of caspase-3 as compared to untreated cells” value was 320 ± 12%.
On to “native HEWL: native hen egg white lysozyme”, for which the “MTT reduction relative to untreated cells” value in series [4] (setting [6]) is listed as “unaffected”.
For `COc1ccc(-c2cc(-c3ccc(OC)cc3)cc(-c3ccc(OC)cc3)c2)cc1` [Compound 5, 1,3,5-tris(4-methoxyphenyl)benzene], the melting point was 142 to 143 °C. Also, in series [1], the IC50 stood at 200 nM. In addition, the “CR absorbance relative to that measured” value in series [2] is reported as “lower”. In addition, the “Morphology of HEWL aggregates by AFM” value in series [3] is reported as “a few short fibrillar assemblies along with oligomeric species”. Besides, in series [4] (setting [7]), the “MTT reduction relative to untreated cells” value is reported as 93.9 ± 2.9%. In addition, the “Prevention of the apoptotic response” value in series [5] is “significantly prevented”.
In turn, `c1ccc(-c2cc(-c3ccccc3)cc(-c3ccccc3)c2)cc1` [Compound 1, 1,3,5-triphenylbenzene] registered a melting point of 171 to 173 °C. The IC50 in series [1] stood at 100 nM. In series [2], the “CR absorbance relative to that measured” value was “lower”. In series [4] (setting [7]), the “MTT reduction relative to untreated cells” value is 92.7 ± 3.2%. Besides, the “Prevention of the apoptotic response” value in series [5] was “significantly prevented”.
`O=[N+]([O-])c1ccc(-c2cc(-c3ccc([N+](=O)[O-])cc3)cc(-c3ccc([N+](=O)[O-])cc3)c2)cc1` [Compound 3, 1,3,5-tris(4-nitrophenyl)benzene] returned a melting point of 151 to 152 °C. For the same compound, in series [1], the IC50 amounted to 190 nM. In series [2], the “CR absorbance relative to that measured” value is reported as “lower”. Besides, the “Rescue of cell viability (MTT reduction)” value in series [4] (24 h) was “partial rescue”. In series [5], the “Prevention of the apoptotic response” value was “only a slight protective effect”.

One may read the IC50 as the concentration that inhibits the measured activity by half. By melting point is commonly meant the temperature of the solid-liquid transition.
